# Measured values: patent US6444688B1, “Compounds and compositions with nitrogen-containing non-basic side chains” (Eli Lilly and Company, priority 1995, dated 2002)
# pEC50: −log10 of the molar value.
# Tests used:
# [1] = test system: ovariectomized (OVX) rats; experiment: Serum cholesterol analysis, four day dosing; assay type: in vivo, Sprague Dawley rats; conditions: Rattus norvegicus, po, 96 h, OVX rats, oral, daily for 4 days, read-out: Serum Cholesterol (% dec. OVX)
# Procedure: (§1) Animals were dosed daily for 4 days. […] A blood sample was collected by cardiac puncture.
# Blood samples were allowed to clot at room temperature for 2 hours, and serum was obtained following centrifugation for 10 minutes at 3000 rpm. Serum cholesterol was determined using a Boehringer Mannheim Diagnostics high performance cholesterol assay. Briefly the cholesterol was oxidized to cholest-4-en-3-one and hydrogen peroxide. The hydrogen peroxide was then reacted with phenol and 4-aminophenazone in the presence of peroxidase to produce a p-quinone imine dye, which was read spectrophotemetrically at 500 nm. Cholesterol concentration was then calculated against a standard curve. The entire assay was automated using a Biomek Automated Workstation.
# [2] = test system: ovariectomized (OVX) rats; experiment: Four day dosing regimen, post-menopausal rat model: wet uterine weight; assay type: in vivo, Sprague Dawley rats; conditions: OVX rats, oral, daily for 4 days
# Procedure: as §1
# [3] = test system: MCF-7 breast adenocarcinoma cells; experiment: MCF-7 proliferation assay (tritiated thymidine); assay type: cell-based; conditions: Homo sapiens, MCF7; MCF-7 cells, 48 hours with drug, tritiated thymidine pulse 4 hours; read-out: ED50 (the source's name)
# Procedure: MCF-7 breast adenocarcinoma cells (ATCC HTB 22) were maintained in MEM (minimal essential medium, phenol red-free, Sigma, St. Louis, Mo.) supplemented with 10% fetal bovine serum (FBS) (V/V), L-glutamine (2 mM), sodium pyruvate (1 mM), HEPES {(N-[2-hydroxyethyl]piperazine-N′-[2-ethanesulfonic acid]10 mM}, non-essential amino acids and bovine insulin (1 μg/ml) (maintenance medium). Ten days prior to assay, MCF-7 cells were switched to maintenance medium supplemented with 10% dextrancoated charcoal stripped fetal bovine serum (DCC-FBS) assay medium) in place of 10% FBS to deplete internal stores of steroids. MCF-7 cells were removed from maintenance flasks using cell dissociation medium (Ca++/Mg++ free HBSS (phenol red-free) supplemented with 10 mM HEPES and 2 mM EDTA). Cells were washed twice with assay medium and adjusted to 80,000 cells/ml. Approximately […] (8,000 cells) were added to flat-bottom microculture wells (Costar 3596) and incubated at 37° C. in a 5% CO2 humidified incubator for 48 hours to allow for cell adherence and equilibration after transfer. Serial dilutions of drugs or DMSO as a diluent control were prepared in assay medium and […] to triplicate microcultures followed by […] assay medium for a final volume of […]. […] Samples were counted by liquid scintillation. […]
# [4] = test system: uterine eosinophil peroxidase activity; experiment: Uterine eosinophil peroxidase (EPO) assay, four day dosing; assay type: in vivo, Sprague Dawley rats; conditions: OVX rats, oral, daily for 4 days
# Procedure: as §1
smiles,measurement,setting,value
COc1ccc(-c2sc3cc(OC)ccc3c2C(=O)c2ccc(OCC(=O)N3CCCCC3)cc2)cc1 [Compound 7],inhibition in vivo at 0.1 mg/kg,[1]; dose 0.1 mg/kg,3.4%
same,inhibition in vivo at 1 mg/kg,[1]; dose 1 mg/kg,14.6%
same,inhibition in vivo at 10 mg/kg,[1]; dose 10 mg/kg,-41.9%
same,Uterine Weight (% inc. OVX),[2]; dose 0.1 mg/kg,−0.5 % inc. OVX
same,Uterine Weight (% inc. OVX),[2]; dose 1 mg/kg,−16.2 % inc. OVX
same,Uterine Weight (% inc. OVX),[2]; dose 10 mg/kg,8.4 % inc. OVX
same,pEC50,[3],< 6.00
same,Uterine EPO (Vmax),[4]; dose 0.1 mg/kg,5.2 Vmax
same,Uterine EPO (Vmax),[4]; dose 1 mg/kg,3.7 Vmax
same,Uterine EPO (Vmax),[4]; dose 10 mg/kg,4.7 Vmax
